What was measured:
[1] = tested on: HBV; assay: Proliferation of HBV in HBV producing cell line HepG 2.2.15 (competitive PCR of culture supernatant); format: cell-based, Hepatitis B virus; details: HepG 2.2.15, one week; for inhibition at 0.01 µg/mL / inhibition at 0.1 µg/mL / inhibition at 1 µg/mL: Hepatitis B virus, HepG2.2.15, 168 h, read-out: Inhibitory effect on the HBV proliferation: Inhibition activity on HBV-RT (%)
Experimental: <Experiment 2> Inhibitory Effect on the Proliferation of HBV in HBV Producing Cell Line
The following experiment was performed to determine inhibitory effects of compounds of formula 1 on the proliferation of HBV producing cell line.
To test for antiviral effect, replication and proliferation of HBV were measured in HepG 2.2.15, a human liver cancer cell line.
The cell concentration was adjusted to 1×10^5 cells/ml and 1 ml was added to each well of a 24-well cell culture plate, which was then kept in a culture box for 3-4 days at 37° C. under 5% CO2 until cells grew sufficiently, changing culture medium everyday. When the cells matured sufficiently, the test compounds were added to the final concentrations of 0.01, 0.1, and 1 μg/ml. One week after the addition of test compounds, the culture solution was centrifuged at 5,000 rpm for 10 min. 25 μl of supernatant was transferred to a new tube and 5 μl of lysis solution [0.54N NaOH, 0.06% NP40] was added to each tube. After keeping the tube at 37° C. for 1 hr, 30 μl of neutralizing solution [0.09N HCl 0.1MTris-HCl, pH7.4] was added as a reaction solution for competitive polymerase chain reaction (PCR).
PCR was performed using genetic sequence of HBV core protein as a matrix. PCR reaction was carried out by adding 1 unit of Taq polymerase enzyme to 25 pmol of each primer, 250 μM dNTP, 5 μl of PCR reaction solution [0.54N NaOH, 0. 06% NP40, 0.09N HCl, 0.1M Tris-HCl, pH 7.4].
DNA polymerized by PCR was electrophoresed on Agarose gel and quantitatively analyzed using an image analyzer (Gel Doc 1000, Bio-Rad) in order to evaluate the effect of compounds of the present invention on the reduction of HBV proliferation.
3TC (lamivudine) was used as a positive control at the same concentrations as those of the test compounds. The percentage of reduction in HBV proliferation was calculated using the group without test compound as a control and the results are represented in Table 4.

[2] = biological target: T1, HBV polymerase (Hepatitis B virus genotype A2 subtype adw2, UniProt P03159); assay: In vitro reverse transcription activity of HBV polymerase (ELISA-type, DIG/biotin nucleotides); format: biochemical; details: for inhibition at 0.01 µg/mL / inhibition at 0.1 µg/mL / inhibition at 1 µg/mL: read-out: Inhibition activity on HBV-RT (%)
T1 construct: made in house; host or cells: E. coli
T1 sequence (P03159 whole entry): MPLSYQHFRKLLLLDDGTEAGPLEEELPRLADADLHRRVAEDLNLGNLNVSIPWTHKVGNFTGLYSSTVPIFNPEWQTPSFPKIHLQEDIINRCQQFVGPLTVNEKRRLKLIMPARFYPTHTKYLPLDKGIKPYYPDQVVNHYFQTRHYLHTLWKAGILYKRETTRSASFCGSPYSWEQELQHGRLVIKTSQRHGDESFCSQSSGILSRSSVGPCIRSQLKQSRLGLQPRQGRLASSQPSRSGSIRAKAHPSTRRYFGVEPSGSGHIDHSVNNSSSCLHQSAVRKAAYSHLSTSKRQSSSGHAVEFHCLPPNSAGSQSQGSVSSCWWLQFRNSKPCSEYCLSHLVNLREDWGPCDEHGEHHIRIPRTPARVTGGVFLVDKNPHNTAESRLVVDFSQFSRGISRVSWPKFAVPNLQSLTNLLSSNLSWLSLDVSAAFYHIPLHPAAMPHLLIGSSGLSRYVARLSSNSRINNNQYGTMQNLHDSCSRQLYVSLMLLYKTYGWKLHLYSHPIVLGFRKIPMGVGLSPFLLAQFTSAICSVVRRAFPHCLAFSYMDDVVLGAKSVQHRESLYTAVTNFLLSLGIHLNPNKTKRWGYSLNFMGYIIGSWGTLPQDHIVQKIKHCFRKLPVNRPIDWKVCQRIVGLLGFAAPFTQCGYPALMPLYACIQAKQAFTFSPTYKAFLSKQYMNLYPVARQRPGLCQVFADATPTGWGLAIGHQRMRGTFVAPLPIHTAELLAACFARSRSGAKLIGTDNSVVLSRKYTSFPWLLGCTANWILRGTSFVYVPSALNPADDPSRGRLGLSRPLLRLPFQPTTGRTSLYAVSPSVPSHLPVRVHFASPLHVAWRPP
Experimental: <Experiment 1> Inhibitory Effect on the In Vitro Activities of HBV Polymerase in Reverse Transcription
The following in vitro experiment was performed to determine the effect of the compounds of formula 1 on the activity of HBV polymerase during reverse transcription.
The present inventors submitted application for a patent concerning HBV polymerase genetically expressed in and separated from E.coli, the process of its preparation, and the method to measure the enzyme activities (KR 94-3918, KR 96-33998). In the present experiments HBV polymerase was used which had been expressed in E. coli as stated above.
The method used in the present invention to measure in vitro reverse transcribing activities of HBV polymerase is as follows. Basic principles are the same as for ELISA. Nucleotides with biotin or digoxigenin group attached are included as substrates and anti-DIG antibodies attached to peroxidase enzyme recognize the polymerized substrates.
To the wells coated with streptavidin, 20 μl of HBV polymerase, 20 μl of reaction mixture (10 μM each of DIG-UTP and Biotin-UTP, 46 mM Tris-HCl, 266 mM KCl, 27.5 mM MgCl2, 9.2 mM DTT substrate/primer nybrid), and 20 μl of test compound (added to 1, 0.1, and 0.01 μg/ml) were added and allowed to react at 22° C. for 15 hrs. During this reaction, HBV polymerase catalyzes DNA synthesis and digoxigenin and biotin attached to nucleotides form bonds with streptavidin coated on the bottom of wells. When the reaction was done, each well was washed with 250 μl of cleaning buffer (pH 7.0) for 30 seconds, which was repeated five times to remove remaining impurities. 200 μl of anti-DIG-POD antibody was added to each well and allowed to react for 1 hr at 37° C., and the wells were washed with cleaning buffer to remove impurities. 200 μl each of ABTS™, a substrate of peroxidase, was then added and allowed to react at room temperature for 30 min. Absorbance was measured at 405 nm using ELISA reader.
The percentage of reduction in HBV polymerase activities for reverse transcription was calculated using the group without test compound as a control and the results are shown in Table 3.

[3] = biological target: T2, HIV reverse transcriptase (Human immunodeficiency virus type 1 group M subtype B, UniProt P03366); assay: In vitro HIV reverse transcriptase activity (non-radioactive RT assay kit); format: biochemical
T2 construct: purchased Boehringer Mannheim
Experimental: <Experiment 3> Inhibitory Effect on the In Vitro HIV Enzyme Activities in Reverse Transcription
The following in vitro experiments were done to determine the effect of compounds of formula 1 on the reduction of HIV enzyme activities in reverse transcription.
Non-radioactive reverse transcriptase assay kit (Boehringer Mannheim) was used in the measurement of in vitro transcriptase activities. 20 μl (40 ng) of HIV transcriptase and 20 μl of reaction mixture containing matrix-primer hybrid poly(A)oligo(dT)15, DIG(digoxigenin)-dUTP, biotin-dUTP, and TTP were added to wells coated with streptavidin. Test compounds were also added at the final concentrations of 0.1 and 1 μg/ml and allowed to react at 37° C. for 1 hr. At this time, DNA is formed from RNA by the action of HIV reverse transcriptase, forming bonds with streptavidin coated on the bottom of wells because of digoxigenin and biotin moieties attached to nucleotides.
When the reaction was completed, each well was washed with 250 μl of cleaning buffer (pH7.0) for 30sec. five times to remove remaining impurities. 200 μl of anti-DIG-POD […] was added to each well, allowed to react at 37° C. for 1 hr and washed as above to remove impurities. 200 μl of ABTS™, a substrate for peroxidase, was added to each well and allowed to react at room temperature for 30 min. Absorbance at 405 nm was then read for each solution using ELISA reader and used for quantitative determination of inhibitory effect on the HIV transcriptase activities. The percentage of reduction in the activities of HIV reverse transcriptase was calculated using the group without test compound as control and the results are represented in Table 5.

## CNc1ccc([N+](=O)[O-])c(Nc2ccc3[nH]ncc3c2)n1 [Example 3, 2-(1H-5-indazolylamino)-6-methyl amino-3-nitropyridine]
[1]; 0.1 μg/ml
  Inhibitory effect on the HBV proliferation: Inhibition activity on HBV-RT (%): 35%
[1]; 1 μg/ml
  Inhibitory effect on the HBV proliferation: Inhibition activity on HBV-RT (%): 53%
[2]; 0.01 μg/ml test compound
  Inhibition activity on HBV-RT (%): 20%
[2]; 0.1 μg/ml test compound
  Inhibition activity on HBV-RT (%): 47%
[2]; 1 μg/ml test compound
  Inhibition activity on HBV-RT (%): 58%

## CN(C)CCNc1ccc([N+](=O)[O-])c(Nc2ccc3cn[nH]c3c2)n1 [Example 16, 6-[2-(dimethylamino)ethylamino]-2-(1H-6-indazolylamino)-3-nitropyridine]
[2]; 0.01 μg/ml test compound
  inhibition at 0.01 µg/mL: 38%
[2]; 0.1 μg/ml test compound
  inhibition at 0.1 µg/mL: 55%
[2]; 1 μg/ml test compound
  inhibition at 1 µg/mL: 80%
[3]; 0.1 μg/ml test compound
  Inhibitory effect on the activities of HIV reverse transcriptase: Inhibition activity on HIV-RT (%): 51%
[3]; 1 μg/ml test compound
  Inhibitory effect on the activities of HIV reverse transcriptase: Inhibition activity on HIV-RT (%): 75%

## O=[N+]([O-])c1ccc(N2CCC(O)CC2)nc1Nc1ccc2[nH]ncc2c1 [Example 28, 6-(4-hydroxy-1-piperidinyl)-2-(1H-5-indazolylamino)-3-nitropyridine]
[2]; 0.01 μg/ml test compound
  inhibition at 0.01 µg/mL: 20%
[2]; 0.1 μg/ml test compound
  inhibition at 0.1 µg/mL: 34%
[2]; 1 μg/ml test compound
  inhibition at 1 µg/mL: 55%

## CN1CCN(c2ccc([N+](=O)[O-])c(Nc3ccc4cn[nH]c4c3)n2)CC1 [Example 26, 2-(1H-6-indazolylamino)-6-(4-methyl-1-piperazinyl)-3-nitropyridine]
[2]; 0.01 μg/ml test compound
  inhibition at 0.01 µg/mL: 18%
[2]; 0.1 μg/ml test compound
  inhibition at 0.1 µg/mL: 40%
[2]; 1 μg/ml test compound
  inhibition at 1 µg/mL: 63%

## Nc1ccn([C@@H]2CS[C@H](CO)O2)c(=O)n1 [Example 3TC, lamivudine, reference compound]
[1]; 0.01 μg/ml
  inhibition at 0.01 µg/mL: 48%
[1]; 0.1 μg/ml
  inhibition at 0.1 µg/mL: 80%
[1]; 1 μg/ml
  inhibition at 1 µg/mL: 99%

## C[C@@H](CCO)Nc1ccc([N+](=O)[O-])c(Nc2ccc3cn[nH]c3c2)n1 [Example 13, 6-[(1S)-1-(hydroxyethyl)ethylamino]-2-(1H-6-indazolylamino)-3-nitropyridine]
[2]; 0.01 μg/ml test compound
  inhibition at 0.01 µg/mL: 10%
[2]; 0.1 μg/ml test compound
  inhibition at 0.1 µg/mL: 35%
[2]; 1 μg/ml test compound
  inhibition at 1 µg/mL: 66%

## O=[N+]([O-])c1ccc(NC2CC2)nc1Nc1ccc2[nH]ncc2c1 [Example 8, 6-cyclopropylamino-2-(1H-5-indazolylamino)-3-nitropyridine]
[1]; 0.01 μg/ml
  inhibition at 0.01 µg/mL: 25%
[1]; 0.1 μg/ml
  inhibition at 0.1 µg/mL: 46%
[1]; 1 μg/ml
  inhibition at 1 µg/mL: 65%
[2]; 0.01 μg/ml test compound
  inhibition at 0.01 µg/mL: 38%
[2]; 0.1 μg/ml test compound
  inhibition at 0.1 µg/mL: 52%
[2]; 1 μg/ml test compound
  inhibition at 1 µg/mL: 72%

## CN1CCN(Nc2ccc([N+](=O)[O-])c(Nc3ccc4[nH]ncc4c3)n2)CC1 [Example 17, 2-(1H-5-indazolylamino)-6-(4-methyl-1-piperazinyl)amino-3-nitropyridine]
[2]; 0.01 μg/ml test compound
  inhibition at 0.01 µg/mL: 41%
[2]; 0.1 μg/ml test compound
  inhibition at 0.1 µg/mL: 52%
[2]; 1 μg/ml test compound
  inhibition at 1 µg/mL: 75%

## COCC(C)Nc1ccc([N+](=O)[O-])c(Nc2ccc3[nH]ncc3c2)n1 (stereo not drawn) [Example 15, 2-(1H-5-indazolylamino)-6-(2-methoxy-1-methyl)ethylamino-3-nitropyridine]
[1]; 0.01 μg/ml
  Inhibitory effect on the HBV proliferation: Inhibition activity on HBV-RT (%): 36%
[1]; 0.1 μg/ml
  Inhibitory effect on the HBV proliferation: Inhibition activity on HBV-RT (%): 60%
[1]; 1 μg/ml
  Inhibitory effect on the HBV proliferation: Inhibition activity on HBV-RT (%): 95%
[2]; 0.01 μg/ml test compound
  Inhibition activity on HBV-RT (%): 47%
[2]; 0.1 μg/ml test compound
  Inhibition activity on HBV-RT (%): 68%
[2]; 1 μg/ml test compound
  Inhibition activity on HBV-RT (%): 97%

## O=[N+]([O-])c1ccc(N2CCC(O)CC2)nc1Nc1ccc2cn[nH]c2c1 [Example 29, 6-(4-hydroxy-1-piperidinyl)-2-(1H-6-indazolylamino)-3-nitropyridine]
[2]; 0.01 μg/ml test compound
  inhibition at 0.01 µg/mL: 10%
[2]; 0.1 μg/ml test compound
  inhibition at 0.1 µg/mL: 35%
[2]; 1 μg/ml test compound
  inhibition at 1 µg/mL: 52%

## Nc1ccc([N+](=O)[O-])c(Nc2ccc3[nH]ncc3c2)n1 [Example 9, 6-amino-2-(1H-5-indazolylamino)-3-nitropyridine]
[2]; 0.01 μg/ml test compound
  inhibition at 0.01 µg/mL: 40%
[2]; 0.1 μg/ml test compound
  inhibition at 0.1 µg/mL: 59%
[2]; 1 μg/ml test compound
  inhibition at 1 µg/mL: 80%

## O=[N+]([O-])c1ccc(NCc2cccnc2)nc1Nc1ccc2[nH]ncc2c1 [Example 19, 2-(1H-5-indazolylamino)-3-nitro-6-(3-pyridyl)methylaminopyridine]
[1]; 0.01 μg/ml
  inhibition at 0.01 µg/mL: 30%
[1]; 0.1 μg/ml
  inhibition at 0.1 µg/mL: 51%
[1]; 1 μg/ml
  inhibition at 1 µg/mL: 85%
[2]; 0.01 μg/ml test compound
  inhibition at 0.01 µg/mL: 42%
[2]; 0.1 μg/ml test compound
  inhibition at 0.1 µg/mL: 58%
[2]; 1 μg/ml test compound
  inhibition at 1 µg/mL: 91%

## O=[N+]([O-])c1ccc(N2CCN(CCO)CC2)nc1Nc1ccc2cn[nH]c2c1 [Example 27, 6-[4-(2-hydroxyethyl)-1-piperazinyl]-2-(1H-6-indazolylamino)-3-nitropyridine]
[2]; 0.01 μg/ml test compound
  inhibition at 0.01 µg/mL: 15%
[2]; 0.1 μg/ml test compound
  inhibition at 0.1 µg/mL: 38%
[2]; 1 μg/ml test compound
  inhibition at 1 µg/mL: 60%
[3]; 0.1 μg/ml test compound
  Inhibitory effect on the activities of HIV reverse transcriptase: Inhibition activity on HIV-RT (%): 45%
[3]; 1 μg/ml test compound
  Inhibitory effect on the activities of HIV reverse transcriptase: Inhibition activity on HIV-RT (%): 81%

## CN1CCN(c2ccc([N+](=O)[O-])c(Nc3ccc4[nH]ncc4c3)n2)CC1 [Example 25, 2-(1H-5-indazolylamino)-6-(4-methyl-1-piperazinyl)-3-nitropyridine]
[1]; 0.01 μg/ml
  inhibition at 0.01 µg/mL: 25%
[1]; 0.1 μg/ml
  inhibition at 0.1 µg/mL: 46%
[1]; 1 μg/ml
  inhibition at 1 µg/mL: 83%
[2]; 0.01 μg/ml test compound
  inhibition at 0.01 µg/mL: 35%
[2]; 0.1 μg/ml test compound
  inhibition at 0.1 µg/mL: 54%
[2]; 1 μg/ml test compound
  inhibition at 1 µg/mL: 88%

## 6-(2-hydroxyethyl)methylamino-2-(1H-5-indazolylamino)-3-nitropyridine [Example 10]
[2]; 0.01 μg/ml test compound
  Inhibition activity on HBV-RT (%): 50%
[2]; 0.1 μg/ml test compound
  Inhibition activity on HBV-RT (%): 58%
[2]; 1 μg/ml test compound
  Inhibition activity on HBV-RT (%): 78%
